Experiments:
[1] = biological target: human Orexin type 2 receptors (Homo sapiens (Human), UniProt O43614); experiment: Scintillation Proximity Assay (SPA) binding assay, [3H]EMPA displacement, HEK-hOX2 membranes
Procedure: Scintillation Proximity Assay (SPA) Binding Assays
CHO cells stably transfected with human Orexin type 1 receptors (CHO-hOX1) or HEK-293 cells transiently transfected with human Orexin type 2 receptors (HEK-hOX2) were collected after 16 h induction with 5 mM sodium butyrate. The cell pellets were re-suspended, homogenized in 15 mM Tris/HCl pH=7.5, 1 mM EGTA, 0.3 mM EDTA, 2 mM MgCl2, protease inhibitors and centrifuged at 40,000 g (20 min, 4° C.). After re-suspension, homogenization and centrifugation as above, the final pellets were re-suspended in 75 mM Tris/HCl pH=7.5, 1 mM EGTA, 0.3 mM EDTA, 12.5 mM MgCl2, 250 mM Sucrose, protease inhibitors, divided into aliquots and frozen down at −80° C.
CHO-hOX1 cell membranes (6 μg ml^−1) or HEK-hOX2 membranes (8 μg ml^−1) were pre-coupled with 1.0 mg ml^−1 of Wheatgerm Agglutinin-coated Yttrium Silicate (YSi-WGA) SPA beads (Perkin Elmer) in buffer containing 25 mM HEPES pH=7.4, 1 mM CaCl2), 5 mM MgCl2, 0.01% (w/v) BSA, 0.02% (w/v) Pluronic F-127 by shaking at room temperature for 2.5-3 h.
(§1) The binding was performed in a final volume of 200 μl. 100 μl of hOX1 or hOX2 beads-membranes suspension were added to 100 μl of [^3H]SB-674042 or [^3H]EMPA solutions (radioligand concentration 2 nM final in the assay), into the 96-well Isoplates containing the 2 μl/well of compounds to be tested. Nonspecific binding was measured in the presence of 1 μM Almorexant. Assay plates were then incubated at room temperature for 3 h before being counted in a Microbeta scintillation counter (PerkinElmer).
Data were analysed by non-linear regression analysis using XLfit Software.

[2] = biological target: human Orexin type 1 receptors (Homo sapiens (Human), UniProt O43613); experiment: Scintillation Proximity Assay (SPA) binding assay, [3H]SB-674042 displacement, CHO-hOX1 membranes
Chain of human Orexin type 1 receptors (O43613 whole entry): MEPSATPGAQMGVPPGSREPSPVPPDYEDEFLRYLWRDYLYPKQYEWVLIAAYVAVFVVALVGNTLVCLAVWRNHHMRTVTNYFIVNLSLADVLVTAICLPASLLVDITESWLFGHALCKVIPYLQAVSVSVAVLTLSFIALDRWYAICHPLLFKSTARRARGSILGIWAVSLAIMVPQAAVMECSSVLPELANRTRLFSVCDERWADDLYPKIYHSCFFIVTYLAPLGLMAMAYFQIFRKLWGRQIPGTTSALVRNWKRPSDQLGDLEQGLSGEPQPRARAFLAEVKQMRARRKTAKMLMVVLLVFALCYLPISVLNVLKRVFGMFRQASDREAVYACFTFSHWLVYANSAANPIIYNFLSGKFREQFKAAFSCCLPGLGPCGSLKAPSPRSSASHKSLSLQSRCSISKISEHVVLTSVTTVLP
Procedure: as §1, with “Scintillation Proximity Assay (SPA) Binding Assays CHO cells stably transfected with human Orexin type 1 receptors (CHO-hOX1) or HEK-293 cells transiently transfected with human Orexin type 2 receptors (HEK-hOX2) were collected after 16 h induction with 5 mM sodium butyrate. […] The” for “The”, “(PerkinElmer). Data were analysed by non-linear regression analysis using XLfit Software.” for “(PerkinElmer).”

Chain of human Orexin type 2 receptors (O43614 whole entry): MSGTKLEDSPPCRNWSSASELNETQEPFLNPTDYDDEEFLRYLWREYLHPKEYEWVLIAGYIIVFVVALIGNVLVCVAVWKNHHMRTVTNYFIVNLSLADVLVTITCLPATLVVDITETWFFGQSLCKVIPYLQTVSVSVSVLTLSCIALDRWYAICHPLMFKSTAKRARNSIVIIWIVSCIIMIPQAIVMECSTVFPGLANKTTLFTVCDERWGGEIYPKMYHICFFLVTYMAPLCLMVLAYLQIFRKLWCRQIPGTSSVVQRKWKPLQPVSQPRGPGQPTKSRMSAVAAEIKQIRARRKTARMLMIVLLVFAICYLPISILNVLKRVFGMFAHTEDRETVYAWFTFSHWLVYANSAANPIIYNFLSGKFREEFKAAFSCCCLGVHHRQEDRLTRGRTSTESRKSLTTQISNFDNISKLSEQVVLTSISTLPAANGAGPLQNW

Row | Structure (SMILES) | OX2 pKi (SPA binding) ([1]; Table 1, [3H]EMPA 2 nM) | OX1 pKi (SPA binding) ([2]; Table 1, [3H]SB-674042 2 nM) | OX2 pKi (SPA binding) ([1]; Table 2, [3H]EMPA 2 nM) | OX1 pKi (SPA binding) ([2]; Table 2, [3H]SB-674042 2 nM)
1 | Cc1ccc(-c2nccs2)c(C(=O)N2C3CC(C3)[C@@H](C)C2COc2ccc(F)cc2)n1 (mixture of isomers) [Example 96, cis-3-[(4-fluorophenoxy)methyl]-4-methyl-2-[6-methyl-3-(1,3-thiazol-2-yl)pyridine-2-carbonyl]-2-azabicyclo[3.1.1]heptane] | 6.88 | 8.18 | – | –
2 | Cc1ccc(-c2nccs2)c(C(=O)N2C3CC(C3)[C@@H](C)C2COc2ccc(F)cc2)c1 (mixture of isomers) [Example 98, cis-3-[(4-fluorophenoxy)methyl]-4-methyl-2-[5-methyl-2-(1,3-thiazol-2-yl)benzoyl]-2-azabicyclo[3.1.1]heptane] | 6.75 | 7.86 | – | –
3 | Cc1ccc(OCC2[C@H](C)C3CC(C3)N2C(=O)c2nc(C)ccc2-n2nccn2)nc1 (mixture of isomers) [Example 100, cis-4-methyl-2-[6-methyl-3-(2H-1,2,3-triazol-2-yl)pyridine-2-carbonyl]-3-{[(5-methylpyridin-2-yl)oxy]methyl}-2-azabicyclo[3.1.1]heptane] | 5.96 | 7.03 | – | –
4 | Cc1ccc(-c2nccs2)c(C(=O)N2C3CC(C3)[C@H](C)C2COc2ccc(F)cc2)c1 (mixture of isomers) [Example 101, trans-3-[(4-fluorophenoxy)methyl]-4-methyl-2-[5-methyl-2-(1,3-thiazol-2-yl)benzoyl]-2-azabicyclo[3.1.1]heptane] | 6.15 | 8.02 | – | –
5 | Cc1ccc(-c2nccs2)c(C(=O)N2C3CC(C3)[C@H](C)C2COc2ccc(F)cc2)n1 (mixture of isomers) [Example 106, trans-3-[(4-fluorophenoxy)methyl]-4-methyl-2-[6-methyl-3-(1,3-thiazol-2-yl)pyridine-2-carbonyl]-2-azabicyclo[3.1.1]heptane] | 6.12 | 8.16 | – | –
6 | Cc1ccc(-n2nccn2)c(C(=O)N2C3CC(C3)[C@H](C)C2COc2ccc(F)c(F)c2)n1 (mixture of isomers) [Example 111, trans-3-[(3,4-difluorophenoxy)methyl]-4-methyl-2-[6-methyl-3-(2H-1,2,3-triazol-2-yl)pyridine-2-carbonyl]-2-azabicyclo[3.1.1]heptane] | 5.99 | 7.53 | – | –
7 | Cc1nc(C(=O)N2C3CC(C3)[C@H](C)C2COc2ccc(F)cc2)c(-c2ncccn2)s1 (mixture of isomers) [Example 113, trans-3-[(4-fluorophenoxy)methyl]-4-methyl-2-[2-methyl-5-(pyrimidin-2-yl)-1,3-thiazole-4-carbonyl]-2-azabicyclo[3.1.1]heptane] | – | – | 5.72 | 8.21
8 | Cc1nc(C(=O)N2C3CC(C3)[C@H](C)C2COc2ccc(F)cn2)c(-c2ncccn2)s1 (mixture of isomers) [Example 116, trans-3-{[(5-fluoropyridin-2-yl)oxy]methyl}-4-methyl-2-[2-methyl-5-(pyrimidin-2-yl)-1,3-thiazole-4-carbonyl]-2-azabicyclo[3.1.1]heptane] | – | – | 5.26 | 7.32
9 | Cc1nc(C(=O)N2C3CC(C3)[C@H](C)C2COc2ccc(F)cn2)c(-c2ccccn2)s1 (mixture of isomers) [Example 117, trans-3-{[(5-fluoropyridin-2-yl)oxy]methyl}-4-methyl-2-[2-methyl-5-(pyridin-2-yl)-1,3-thiazole-4-carbonyl]-2-azabicyclo[3.1.1]heptane] | – | – | 5.47 | 7.13
10 | Cc1ccc(-c2ncccn2)c(C(=O)N2C3CC(C3)[C@H](C)C2COc2ccc(Cl)cn2)n1 (mixture of isomers) [Example 118, trans-3-{[(5-chloropyridin-2-yl)oxy]methyl}-4-methyl-2-[6-methyl-3-(pyrimidin-2-yl)pyridine-2-carbonyl]-2-azabicyclo[3.1.1]heptane] | – | – | 5.75 | 7.39
11 | Cc1nc(C(=O)N2C3CC(C3)[C@H](C)C2COc2ccc(F)cc2)c(-c2cnccn2)s1 (mixture of isomers) [Example 121, trans-3-[(4-fluorophenoxy)methyl]-4-methyl-2-[2-methyl-5-(pyrazin-2-yl)-1,3-thiazole-4-carbonyl]-2-azabicyclo[3.1.1]heptane] | – | – | 5.54 | 7.36
12 | Cc1ccc(-n2cccn2)c(C(=O)N2C3CC(C3)[C@H](C)C2COc2ccc(F)cc2)n1 (mixture of isomers) [Example 122, trans-3-[(4-fluorophenoxy)methyl]-4-methyl-2-[6-methyl-3-(1H-pyrazol-1-yl)pyridine-2-carbonyl]-2-azabicyclo[3.1.1]heptane] | – | – | 5.4 | 7.22
13 | Cc1nc(C(=O)N2C3CC(C3)[C@H](C)C2COc2ccc(F)cc2)c(-c2ccccn2)s1 (mixture of isomers) [Example 123, trans-3-[(4-fluorophenoxy)methyl]-4-methyl-2-[2-methyl-5-(pyridin-2-yl)-1,3-thiazole-4-carbonyl]-2-azabicyclo[3.1.1]heptane] | – | – | 6.12 | 8.02
14 | Cc1nc(C(=O)N2C3CC(C3)[C@H](C)C2COc2ccc(F)cc2)c(-n2nccn2)s1 (mixture of isomers) [Example 126, trans-3-[(4-fluorophenoxy)methyl]-4-methyl-2-[2-methyl-5-(2H-1,2,3-triazol-2-yl)-1,3-thiazole-4-carbonyl]-2-azabicyclo[3.1.1]heptane] | – | – | 5.7 | 7.39
15 | Cc1ccc(-n2ncc(C)n2)c(C(=O)N2C3CC(C3)[C@H](C)C2COc2ccc(F)cc2)n1 (mixture of isomers) [Example 127, trans-3-[(4-fluorophenoxy)methyl]-4-methyl-2-[6-methyl-3-(4-methyl-2H-1,2,3-triazol-2-yl)pyridine-2-carbonyl]-2-azabicyclo[3.1.1]heptane] | – | – | 6.1 | 7.91
16 | C[C@H]1C2CC(C2)N(C(=O)c2cc(F)ccc2-n2nccn2)C1COc1ccc(F)cc1 (mixture of isomers) [Example 128, trans-2-[5-fluoro-2-(2H-1,2,3-triazol-2-yl)benzoyl]-3-{(4-fluorophenoxy)methyl]-4-methyl-2-azabicyclo[3.1.1]heptane] | – | – | 5.61 | 6.85
17 | Cc1ccc(-n2nccn2)c(C(=O)N2C3CC(C3)[C@@H](C)C2COc2ccc(C(F)(F)F)cn2)n1 (mixture of isomers) [Example 129, cis-4-methyl-2-[6-methyl-3-(2H-1,2,3-triazol-2-yl)pyridine-2-carbonyl]-3-({[5-(trifluoromethyl)pyridin-2-yl]oxy}methyl)-2-azabicyclo[3.1.1]heptane] | – | – | 5.14 | 6.81
18 | Cc1ccc(-n2nccn2)c(C(=O)N2C3CC(C3)[C@@H](C)C2COc2ccc(F)cn2)n1 (mixture of isomers) [Example 130, cis-3-{[(5-fluoropyridin-2-yl)oxy]methyl}-4-methyl-2-[6-methyl-3-(2H-1,2,3-triazol-2-yl)pyridine-2-carbonyl]-2-azabicyclo[3.1.1]heptane] | – | – | 6.08 | 6.9
19 | O=C(c1nc(Cl)sc1-c1ccccc1)N1C(COc2ccc(F)cc2)CC2CC1C2 (stereo not shown) [Example 51] | – | 7.22 | – | –
